Values belong to the molecule of their own block, whether it stands above or below them.
Key:
LLC1 syngeneic tumor = experiment: In vivo efficacy in LLC1 syngeneic tumor model (murine Lewis lung carcinoma); design: species or system C57BL/6 mice; conditions: for % TGI (vs Control): Day 15; for Tumor volume (mm^3), Mean, Day 15: SE in next cell; for Reduction of tumor volume compared among the dosing groups of the compound: IV dosing in combination with anti-PD-1 antibody (FIG. 4, 7, 10); for Effect on tumor volume in the murine Lewis lung carcinoma model: PO and IV dosing, alone or in combination with anti-PD-1 antibody (FIG. 4, 7, 10); for Tumor volume (mm^3), Mean ± SE, Day 1: baseline at start of treatment
Description: The anti-tumor efficacy of Compound 155, 173 and 174 was evaluated in combination with an anti-PD-1 antibody (check point inhibitor) in LLC1, a syngeneic tumor model. Compounds were administered orally at a dose of 100 mg/kg, once daily. IV doses of the compound were administered at 10 mg/kg dose, twice weekly or Q3D (Compound 155 at 2 mg/Kg IV). Anti-PD-1 antibody was administered at a dose of 200 μg/animal via IP route on days 1, 5 and 9 (Table 5).
C57BL/6 mice (female, 7-8 weeks of age) were implanted subcutaneously with 0.2×10^6 LLC1 cells (ATCC® CRL-1642^Tm) to evaluate tumor growth in a murine Lewis lung carcinoma model. Tumor-bearing animals were randomized into different treatment groups of 8 animals based on tumor size criteria of about 50-60 mm^3 and dosed according to the schedule in Table 5.
Dosing protocol: The frequency for oral administration was once daily and IV administration was twice weekly for two weeks; anti-PD-1 antibody was administered via IP route on Days 1, 5 and 9.
Tumor measurement: Tumor growth was measured thrice weekly using a digital Vernier caliper. Tumor volume was calculated as: Tumor Volume (TV)=[Length (L)×Width (W)2]/2 (where length is the largest diameter and width is the smallest diameter of the tumor)
Efficacy Evaluation: Tumor growth inhibition (TGI) was calculated as: […]
Data Analysis: Statistical analysis of the data was performed by One-way ANOVA followed by Dunnett's test using GraphPad Prism (version 5.03).

ENPP1 = biological target: T1, ENPP1 (Homo sapiens, UniProt P22413); experiment: Capillary electrophoresis-based NPP assay with ATP as a substrate (ENPP1 inhibition, Ki); type: biochemical; conditions: Ki from IC50 by Cheng-Prusoff, 400 μM ATP
T1 sequence (P22413 1-925): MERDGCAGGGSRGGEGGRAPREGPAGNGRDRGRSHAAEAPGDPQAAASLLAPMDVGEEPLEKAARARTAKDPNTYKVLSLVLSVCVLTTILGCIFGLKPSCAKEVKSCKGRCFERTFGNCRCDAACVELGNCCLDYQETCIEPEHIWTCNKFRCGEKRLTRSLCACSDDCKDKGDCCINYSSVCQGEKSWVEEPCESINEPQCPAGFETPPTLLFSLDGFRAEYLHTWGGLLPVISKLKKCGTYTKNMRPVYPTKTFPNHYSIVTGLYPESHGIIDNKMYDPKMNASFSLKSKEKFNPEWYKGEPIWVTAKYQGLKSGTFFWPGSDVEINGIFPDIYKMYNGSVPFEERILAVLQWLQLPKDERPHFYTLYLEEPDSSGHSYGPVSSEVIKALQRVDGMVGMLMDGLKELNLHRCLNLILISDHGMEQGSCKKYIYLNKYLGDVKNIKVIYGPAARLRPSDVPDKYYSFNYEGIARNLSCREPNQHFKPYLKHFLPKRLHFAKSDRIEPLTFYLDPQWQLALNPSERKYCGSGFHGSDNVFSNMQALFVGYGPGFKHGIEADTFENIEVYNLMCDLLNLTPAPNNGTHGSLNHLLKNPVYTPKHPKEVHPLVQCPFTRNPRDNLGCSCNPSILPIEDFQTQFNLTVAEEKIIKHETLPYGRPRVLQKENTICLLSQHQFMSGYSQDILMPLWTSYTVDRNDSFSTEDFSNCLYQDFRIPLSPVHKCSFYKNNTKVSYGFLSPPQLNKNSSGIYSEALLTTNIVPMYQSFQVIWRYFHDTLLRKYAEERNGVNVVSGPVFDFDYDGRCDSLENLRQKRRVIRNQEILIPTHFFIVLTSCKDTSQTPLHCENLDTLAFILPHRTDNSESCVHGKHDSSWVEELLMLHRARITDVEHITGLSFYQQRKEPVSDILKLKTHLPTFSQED
Description: Here, a Capillary Electrophoresis based method was used to determine the IC50 values for ENPP1 Inhibitors for ENNP1 protein.
The inhibitors synthesized were assessed for ENPP1 inhibitory potency against the natural substrate ATP. The enzyme inhibition assays were performed in 10 mM 2-(N-cyclohexylamino)-ethanesulfonic acid (CHES) buffer (pH 10.0) including 1 mM MgCl2, 2 mM CaCl2), and 400 μM of ATP, with different inhibitor concentrations. The reaction mixture was incubated with 20 ng human NPP1 at 37° C. for 30 min in a final volume of 100 μL, and the reactions were stopped by heating at 90° C. for 3 min. Finally, the reaction mixtures were directly measured by capillary electrophoresis (CE). The CE instrumentation and operating conditions were as follows: P/ACE MDQ capillary electrophoresis system (Beckman Instruments, Fullerton, Calif., USA) with a DAD detection system, polyacrylamide-coated capillaries of 40 cm effective length×[…] (id) obtained from CS Chromatographie GmbH (Langerwehe, Germany), 50 mM phosphate buffer (pH 6.5) as running buffer, electrokinetic injection (−6 kV, 60 s), separation voltage of −15 kV. The amounts of AMP produced were measured at 260 nm. Data collection and peak area analysis were performed by 32 Karat software obtained from Beckman Coulter (Fullerton, Calif., USA).
The IC50 values of test compounds were calculated by plotting data in the program Prism 5.0, and the Ki values were calculated from the IC50 values with the Cheng-Prusoff equation (Tables 2-4).

[1] = IV 2 mg/kg twice weekly + anti-PD-1 200 μg/animal IP Q4D x 3
[2] = PO 100 mg/kg QD x 14 + anti-PD-1 200 μg/animal IP Q4D x 3
[3] = IV 10 mg/kg twice weekly + anti-PD-1 200 μg/animal IP Q4D x 3
[4] = IV 10 mg/kg twice weekly, alone

Ki (ENPP1; bin of Table 2): ≤ 0.1 µM
SMILES: Nc1nc(SCC(=O)Nc2ccc(O)c(C(=O)O)c2)c2[nH]cnc2n1 [Compound 155]
% TGI (vs Control) (LLC1 syngeneic tumor; [1]): 57%
Tumor volume (mm^3), Mean, Day 15 (LLC1 syngeneic tumor; [1]): 787 mm^3
% TGI (vs Control) (LLC1 syngeneic tumor; IV 2 mg/kg twice weekly, alone): 47%
Tumor volume (mm^3), Mean, Day 15 (LLC1 syngeneic tumor; IV 2 mg/kg twice weekly, alone): 956 mm^3
Reduction of tumor volume compared among the dosing groups of the compound (LLC1 syngeneic tumor): greatest reduction
% TGI (vs Control) (LLC1 syngeneic tumor; [2]): 44%
Tumor volume (mm^3), Mean, Day 15 (LLC1 syngeneic tumor; [2]): 1008 mm^3
% TGI (vs Control) (LLC1 syngeneic tumor; PO 100 mg/kg QD x 14, alone): 33%
Tumor volume (mm^3), Mean, Day 15 (LLC1 syngeneic tumor; PO 100 mg/kg QD x 14, alone): 1191 mm^3
Effect on tumor volume in the murine Lewis lung carcinoma model (LLC1 syngeneic tumor): reduced tumor volume
Tumor volume (mm^3), Mean ± SE, Day 1 (LLC1 syngeneic tumor; IV 2 mg/kg + anti-PD-1 group): 50 ± 1.4 mm^3
Tumor volume (mm^3), Mean ± SE, Day 1 (LLC1 syngeneic tumor; IV 2 mg/kg alone group): 51 ± 2.0 mm^3
Tumor volume (mm^3), Mean ± SE, Day 1 (LLC1 syngeneic tumor; PO 100 mg/kg + anti-PD-1 group): 50 ± 1.4 mm^3
Tumor volume (mm^3), Mean ± SE, Day 1 (LLC1 syngeneic tumor; PO 100 mg/kg alone group): 50 ± 1.4 mm^3

Ki (ENPP1; bin of Table 2): ≤ 0.1 µM
SMILES: COc1cc(NC(=O)C(C)Sc2nc(N)nc3nc[nH]c23)ccc1O (stereo not shown) [Compound 173]
% TGI (vs Control) (LLC1 syngeneic tumor; [3]): 53%
Tumor volume (mm^3), Mean, Day 15 (LLC1 syngeneic tumor; [3]): 856 mm^3
% TGI (vs Control) (LLC1 syngeneic tumor; [4]): 48%
Tumor volume (mm^3), Mean, Day 15 (LLC1 syngeneic tumor; [4]): 926 mm^3
Reduction of tumor volume compared among the dosing groups of the compound (LLC1 syngeneic tumor): greatest reduction
% TGI (vs Control) (LLC1 syngeneic tumor; [2]): 47%
Tumor volume (mm^3), Mean, Day 15 (LLC1 syngeneic tumor; [2]): 945 mm^3
% TGI (vs Control) (LLC1 syngeneic tumor; PO 100 mg/kg QD x 14, alone): 37%
Tumor volume (mm^3), Mean, Day 15 (LLC1 syngeneic tumor; PO 100 mg/kg QD x 14, alone): 1126 mm^3
Effect on tumor volume in the murine Lewis lung carcinoma model (LLC1 syngeneic tumor): reduced tumor volume
Tumor volume (mm^3), Mean ± SE, Day 1 (LLC1 syngeneic tumor; IV 10 mg/kg + anti-PD-1 group): 50 ± 1.4 mm^3
Tumor volume (mm^3), Mean ± SE, Day 1 (LLC1 syngeneic tumor; IV 10 mg/kg alone group): 50 ± 1.3 mm^3
Tumor volume (mm^3), Mean ± SE, Day 1 (LLC1 syngeneic tumor; PO 100 mg/kg + anti-PD-1 group): 50 ± 1.4 mm^3
Tumor volume (mm^3), Mean ± SE, Day 1 (LLC1 syngeneic tumor; PO 100 mg/kg alone group): 50 ± 1.4 mm^3

SMILES: CCC(Sc1nc(N)nc2nc[nH]c12)C(=O)Nc1ccc(O)c(OC)c1 (stereo not shown) [Compound 174]
% TGI (vs Control) (LLC1 syngeneic tumor; [3]): 57%
Tumor volume (mm^3), Mean, Day 15 (LLC1 syngeneic tumor; [3]): 778 mm^3
% TGI (vs Control) (LLC1 syngeneic tumor; [4]): 48%
Tumor volume (mm^3), Mean, Day 15 (LLC1 syngeneic tumor; [4]): 930 mm^3
Reduction of tumor volume compared among the dosing groups of the compound (LLC1 syngeneic tumor): greatest reduction
% TGI (vs Control) (LLC1 syngeneic tumor; [2]): 60%
Tumor volume (mm^3), Mean, Day 15 (LLC1 syngeneic tumor; [2]): 724 mm^3
% TGI (vs Control) (LLC1 syngeneic tumor; PO 100 mg/kg QD x 14, alone): 52%
Tumor volume (mm^3), Mean ± SE, Day 1 (LLC1 syngeneic tumor; IV 10 mg/kg + anti-PD-1 group): 50 ± 1.2 mm^3
Tumor volume (mm^3), Mean ± SE, Day 1 (LLC1 syngeneic tumor; IV 10 mg/kg alone group): 50 ± 1.1 mm^3
Tumor volume (mm^3), Mean ± SE, Day 1 (LLC1 syngeneic tumor; PO 100 mg/kg + anti-PD-1 group): 50 ± 1.2 mm^3
Tumor volume (mm^3), Mean ± SE, Day 1 (LLC1 syngeneic tumor; PO 100 mg/kg alone group): 50 ± 1.3 mm^3

Ki (ENPP1; bin of Table 2): ≤ 0.1 µM
SMILES: CC(C)Oc1nc(NC(=O)C(C)(C)Sc2nc(N)nc3nc[nH]c23)ncc1Br [Compound 543]

Ki (ENPP1; bin of Table 4): ≥ 1 µM
SMILES: Cc1ccc(S(N)(=O)=O)cc1NC(=O)Cn1cnc2ncnc(N)c21 [Compound 30]

Ki (ENPP1; bin of Table 2): ≤ 0.1 µM
SMILES: Nc1nc(SCC(=S)Nc2ccc(O)c(C(=O)O)c2)c2[nH]cnc2n1 [Compound 408]

Ki (ENPP1; bin of Table 2): ≤ 0.1 µM
SMILES: CC(C)[C@H](Sc1nc(N)nc2nc[nH]c12)C(=O)Nc1ccc(O)c(C(=O)O)c1 [Compound 269]

Ki (ENPP1; bin of Table 2): ≤ 0.1 µM
SMILES: COc1nc(NC(=O)[C@H](Cc2ccccc2)Sc2nc(N)nc3nc[nH]c23)ncc1Br [Compound 555]

Ki (ENPP1; bin of Table 2): ≤ 0.1 µM
SMILES: COc1ccc(NC(=O)[C@@H](C)Sc2nc(N)nc3nc[nH]c23)nc1OC [Compound 490]

Ki (ENPP1; bin of Table 2): ≤ 0.1 µM
SMILES: COc1ccnc(NC(=O)[C@H](Cc2ccccc2)Sc2nc(N)nc3nc[nH]c23)n1 [Compound 517]

Ki (ENPP1; bin of Table 2): ≤ 0.1 µM
SMILES: CC[C@H](Sc1nc(N)nc2nc[nH]c12)C(=O)Nc1ncc(Br)c(OC)n1 [Compound 509]

Ki (ENPP1; bin of Table 4): ≥ 1 µM
SMILES: COc1ccc(NC(=O)CSc2nc3ccncc3o2)cc1OC [Compound 22]

Ki (ENPP1; bin of Table 2): ≤ 0.1 µM
SMILES: CC(C)Oc1ccnc(NC(=O)C(C)(C)Sc2nc(N)nc3nc[nH]c23)n1 [Compound 534]

From patent publication US20230002387A1, “2-AMINO-S6-SUBSTITUTED THIOPURINE COMPOUNDS AS INHIBITORS OF THE ENPP1 PROTEIN” (ATEN PORUS LIFESCIENCES PVT. LTD., priority 2019, published 2023)
